# Experimental data as given in patent US6316644A, “Pilyethoxylated retinamide derivatives and process for preparing the same” (LG Chemical Ltd., priority 1998, dated 2001).
# Read-outs that look alike come from different tables or passages of the source.
# Key:
# [1] = system: skin photoaging; settings: cited from earlier work
# [2] = system: skin; settings: guinea pig, in vivo
# Description: Assoc. Food and Drug Officials, US. Appraisal of the safety of chemicals in Food, Drugs and Cosmetics, pp46-59, Texas State Dept. of Health, Austin, Tex. and 2 Federal Register (1973): Method of testing primary irritant substances 38(187): pp1500-1541]. Six kinds of the test solutions were prepared at the concentration of 0.3% by using o/w formulation or Lexol GT-865 as the carrier vehicle. First, hair was removed from the portion (dorsal skin of mouse) for applying the test solution and then the naked portion was adapted to the environmental circumstance for 24 hours in order to minimize the skin irritability. The test solution and gauze were applied to the established portion (1.5 cm×1.5 cm) for applying the test solution, which was then sealed with the solid thin film and fixed with the elastic bandage for 48 hours in order to inhibit the evaporation and loss of the test sample. After 2 and 24 hours from removal of the closed patch (i. e. 50 and 72 hours after patch application, respectively), the degree of irritation was determined.
# [3] = system: auricular lymph node; settings: mouse, in vivo
# Description: Toxicol. 10(3); 173-180]. […] Each of the test sample was applied to both ears of Blab/c mouse in an amount of 50μl for 3 days and then auricular lymph node was isolated from mouse. Lymph node was micronized to monocellular state and then incubated for 24 hours with addition of radioisotope (^3 H-thymidine).
# [4] = pH 7.4
# Description: The tests for identification of pharmacological activities of the compound of formula (I) according to the present invention were conducted as follows. First, the test for percutaneous absorption was carried out by cutting off the dorsal skin from 8-weeks aged female mouse, applying the test sample (35 mM) to the skin and then analysing the percutaneous absorption of the test sample by means of an apparatus for measuring percutaneous absorption (Franz cell) and HPLC.
# Specifically, the dorsal skin of 8-weeks aged female mouse (naked mouse) was cut off and then 35 ml solution of the test sample was applied in an amount of 250 μl to the skin having a size of 1.7cm^2. Using the apparatus for measuring percutaneous absorption (Franz cell), after 24 hours, the absorbed materials were extracted respectively from 7 ml of the receptor solution [50 mM PBS buffer solution (pH=7.4) containing 2% VolPO20 Polyethylene oleyl ether (HLB=16)] and the skin and then quantitatively analyzed by high pressure liquid chromatography (HPLC).
# [5] = system: human fibroblasts; experiment: Test for collagen synthesis (tritiated proline, CSP)
# Description: The same count of human fibroblasts was incubated in each well of 24-well plate for 24 hours and then the test sample was applied thereto at the concentration of 10^-4 to 10^-7 w %/ml. After 2 hours, tritiated proline (L-2,3-^3 H proline) was applied to the plate and then further incubated for 24 hours. The amount of collagen as newly synthesized and secreted by fibroblasts utilizing the culture medium was measured by calculating the amount of CPS (collagenous sensitive protein) on the basis of cpm (counting per minute) number of L-2,3-^3 H proline.
# [6] = system: skin of 9-weeks aged naked female mouse
# Description: (§1) The test for organ incubation of skin was carried out by MTT assay method using naked female mouse.
# [7] = lipid-soluble; cited from earlier work
# [8] = system: skin of 9-weeks aged naked female mouse; experiment: Test for organ incubation of skin (MTT assay)
# Description: as §1
# [9] = system: V79-4 cells; experiment: Cytotoxicity test (MTT assay); assay type: cell-based, Chinese hamster; settings: FIG. 2
# Description: The cytotoxicity test was carried out by MTT assay method using V79-4 cells.
# [10] = relative to retinoic acid; FASEB J., 10, 1014-1024, 1996; cited from earlier work
# [11] = 0.3% in Lexol GT-865, MTT assay
compound,measurement,setting,value
COc1ccc(C(C)=O)c(OC(=O)/C=C(C)/C=C/C=C(C)/C=C/C2=C(C)CCCC2(C)C)c1 [2-(all-trans-retinoyloxy)-4-methoxyacetophenone],inhibition of skin cancer and photoaging,"[1]; U.S. Pat. No. 4,677,120",exhibits an effect of inhibiting skin cancer and photoaging
"CCCCCCCCCCCCCCCC(=O)OC/C=C(C)/C=C/C=C(C)/C=C/C1=C(C)CCCC1(C)C [Retinol palmitate, retinol palmitate]",difference between the irritation degrees,[2],no significant difference
same,allergy induction in comparison to ethanol,[3],six times or more
same,Receptor solution (amount absorbed),[4],0.48 nmol
same,effect of increasing collagen synthesis,"[5]; 10^-4 to 10^-7 w %/ml, FIG. 1",does substantially not exhibit an effect of increasing collagen synthesis
same,Degree of irritation,[6],0.34
same,Safety,[6],minute irritation
same,irritation,[6],weak irritation
"CC1=C(/C=C/C(C)=C/C=C/C(C)=C/C(=O)O)C(C)(C)CCC1 [Retinoic acid, all-trans-retinoic acid]",difference between the irritation degrees,[2],no significant difference
same,allergy induction in comparison to ethanol,[3],six times or more
same,Receptor solution (amount absorbed),[4],11.40 nmol
same,activation at 1e-06 w %/ml,"[5]; Homo sapiens, Fibroblast, read-out: increase in collagen synthesis",≤ 21.7%
same,skin photoaging,"[1]; cream preparation applied to skin, JAMA 259, 1988",can be improved
same,skin absorption,[7],low skin absorption
same,irritation,[8]; 0.3%,strong irritation
same,Degree of irritation,[8]; [11],0.11
same,Safety,[8]; [11],strong irritation
CCCCCCCCCCCCOS(=O)(=O)[O-].[Na+] [Sodium lauryl sulfate],Safety,"[8]; control group, <0.05%",minute irritation
same,Safety,"[8]; control group, <0.25%",moderate irritation
same,Safety,"[8]; control group, <0.5%",strong irritation
"polyethoxylated retinamide of formula (I) (R=methyl, n=9.8)",cytotoxicity,[9]; 10^-3 w %/ml or more,exhibits gradually
same,cytotoxicity,[9]; 10^-4 w %/ml and below,only a weak toxicity
same,effect of increasing collagen synthesis at cytotoxic concentration,[5]; 10^-3 w %/ml or more,does not exhibit any increasing effect
same,increase in collagen synthesis (highest effect),[5]; 10^-7 w %/ml,33.8%
same,concentration at which effect of increasing collagen synthesis begins,[5]; limiting concentration at which any toxicity is not caused,below 10^-4 w %/ml
"CC1=C(/C=C/C(C)=C/C=C/C(C)=C/C(=O)O[C@@H]2O[C@H](C(=O)O)[C@@H](O)[C@H](O)[C@H]2O)C(C)(C)CCC1 [retinoyl β-glucuronide (RAG), retinoyl β-glucuronide]",toxicity,[10],relatively reduced toxicity
"CC1=C(/C=C/C(C)=C/C=C/C(C)=C/CO)C(C)(C)CCC1 [Retinol, retinol]",Receptor solution (amount absorbed),[4],11.48 nmol
"CC1=C(/C=C/C(C)=C/C=C/C(C)=C/C(=O)Nc2ccc(O)cc2)C(C)(C)CCC1 [N-(4-hydroxy-phenyl)retinamide (4-HPR), N-(4-hydroxy-phenyl)retinamide]",toxicity,[10],relatively reduced toxicity
